In the NIST ThermoML archive (doi:10.1021/je400250u):
± gives the expanded uncertainty stated by the source.

Assays:
[1] = xn = mol fraction of the nth substance listed; settings: 100 kPa, Liquid; for viscosity: Capillary tube (Ostwald / Ubbelohde) method; for mass density: Vibrating tube method
[2] = refractive index (Na D-line) (dimensionless); xn = mol fraction of the nth substance listed; settings: 100 kPa, Liquid, Standard Abbe refractometry

`C1CC[C@H]2CCCC[C@@H]2C1` [trans-decahydronaphthalene] + CCCCCCCCCCC showed a viscosity ([1]; 313.15 K, x1 = 0.5991) of 1.117 ± 0.012 mPa·s, a viscosity ([1]; 313.15 K, x1 = 0.6991) of 1.182 ± 0.012 mPa·s and a viscosity ([1]; 313.15 K, x1 = 0.8019) of 1.267 ± 0.013 mPa·s. It also gave a viscosity ([1]; 313.15 K, x1 = 0.8992) of 1.364 ± 0.013 mPa·s, a viscosity ([1]; 313.15 K, x1 = 1) of 1.505 ± 0.013 mPa·s and a mass density ([1]; 313.15 K, x1 = 0.1041) of 736.25 ± 0.29 kg/m3. It also gave a mass density ([1]; 313.15 K, x1 = 0.2052) of 747.11 ± 0.26 kg/m3, a mass density ([1]; 313.15 K, x1 = 0.3027) of 758.09 ± 0.24 kg/m3 and a mass density ([1]; 313.15 K, x1 = 0.3999) of 769.57 ± 0.22 kg/m3. For the same compound, the mass density ([1]; 313.15 K, x1 = 0.4997) was 781.99 ± 0.21 kg/m3, the mass density ([1]; 313.15 K, x1 = 0.5991) was 794.96 ± 0.19 kg/m3 and the mass density ([1]; 313.15 K, x1 = 0.6991) was 808.67 ± 0.17 kg/m3. It also gave a mass density ([1]; 313.15 K, x1 = 0.8019) of 823.59 ± 0.16 kg/m3, a mass density ([1]; 313.15 K, x1 = 0.8992) of 838.5 ± 0.15 kg/m3 and a mass density ([1]; 313.15 K, x1 = 1) of 854.88 ± 0.14 kg/m3. It also gave a viscosity ([1]; 318.15 K, x1 = 0.1041) of 0.842 ± 0.012 mPa·s, a viscosity ([1]; 318.15 K, x1 = 0.2052) of 0.869 ± 0.012 mPa·s and a viscosity ([1]; 318.15 K, x1 = 0.3027) of 0.908 ± 0.012 mPa·s. It also gave a viscosity ([1]; 318.15 K, x1 = 0.3999) of 0.94 ± 0.012 mPa·s, a viscosity ([1]; 318.15 K, x1 = 0.4997) of 0.988 ± 0.012 mPa·s and a viscosity ([1]; 318.15 K, x1 = 0.5991) of 1.042 ± 0.012 mPa·s. It also gave a viscosity ([1]; 318.15 K, x1 = 0.6991) of 1.101 ± 0.012 mPa·s, a viscosity ([1]; 318.15 K, x1 = 0.8019) of 1.18 ± 0.012 mPa·s and a viscosity ([1]; 318.15 K, x1 = 0.8992) of 1.267 ± 0.012 mPa·s. The viscosity ([1]; 318.15 K, x1 = 1) was 1.394 ± 0.013 mPa·s, the mass density ([1]; 318.15 K, x1 = 0.1041) was 732.53 ± 0.29 kg/m3 and the mass density ([1]; 318.15 K, x1 = 0.2052) was 743.39 ± 0.26 kg/m3. The mass density ([1]; 318.15 K, x1 = 0.3027) was 754.37 ± 0.24 kg/m3, the mass density ([1]; 318.15 K, x1 = 0.3999) was 765.85 ± 0.22 kg/m3 and the mass density ([1]; 318.15 K, x1 = 0.4997) was 778.27 ± 0.21 kg/m3. For the same compound, the mass density ([1]; 318.15 K, x1 = 0.5991) was 791.24 ± 0.19 kg/m3, the mass density ([1]; 318.15 K, x1 = 0.6991) was 804.95 ± 0.17 kg/m3 and the mass density ([1]; 318.15 K, x1 = 0.8019) was 819.87 ± 0.16 kg/m3. It also gave a mass density ([1]; 318.15 K, x1 = 0.8992) of 834.77 ± 0.15 kg/m3, a mass density ([1]; 318.15 K, x1 = 1) of 851.14 ± 0.14 kg/m3 and a viscosity ([1]; 323.15 K, x1 = 0.1041) of 0.789 ± 0.012 mPa·s. It also gave a viscosity ([1]; 323.15 K, x1 = 0.2052) of 0.815 ± 0.012 mPa·s, a viscosity ([1]; 323.15 K, x1 = 0.3027) of 0.852 ± 0.012 mPa·s and a viscosity ([1]; 323.15 K, x1 = 0.3999) of 0.881 ± 0.012 mPa·s. The viscosity ([1]; 323.15 K, x1 = 0.4997) was 0.924 ± 0.012 mPa·s, the viscosity ([1]; 323.15 K, x1 = 0.5991) was 0.975 ± 0.012 mPa·s and the viscosity ([1]; 323.15 K, x1 = 0.6991) was 1.028 ± 0.012 mPa·s. For the same compound, the viscosity ([1]; 323.15 K, x1 = 0.8019) was 1.1 ± 0.012 mPa·s, the viscosity ([1]; 323.15 K, x1 = 0.8992) was 1.18 ± 0.012 mPa·s and the viscosity ([1]; 323.15 K, x1 = 1) was 1.295 ± 0.012 mPa·s. It also gave a mass density ([1]; 323.15 K, x1 = 0.1041) of 728.79 ± 0.29 kg/m3, a mass density ([1]; 323.15 K, x1 = 0.2052) of 739.66 ± 0.26 kg/m3 and a mass density ([1]; 323.15 K, x1 = 0.3027) of 750.64 ± 0.24 kg/m3. The mass density ([1]; 323.15 K, x1 = 0.3999) was 762.12 ± 0.22 kg/m3, the mass density ([1]; 323.15 K, x1 = 0.4997) was 774.54 ± 0.21 kg/m3 and the mass density ([1]; 323.15 K, x1 = 0.5991) was 787.51 ± 0.19 kg/m3. For the same compound, the mass density ([1]; 323.15 K, x1 = 0.6991) was 801.22 ± 0.18 kg/m3, the mass density ([1]; 323.15 K, x1 = 0.8019) was 816.14 ± 0.16 kg/m3 and the mass density ([1]; 323.15 K, x1 = 0.8992) was 831.03 ± 0.15 kg/m3. It also gave a mass density ([1]; 323.15 K, x1 = 1) of 847.4 ± 0.14 kg/m3, a refractive index ([2]; 298.15 K, x1 = 0.1041) of 1.4188 ± 0.0013 and a refractive index ([2]; 298.15 K, x1 = 0.2052) of 1.423 ± 0.0013. For the same compound, the refractive index ([2]; 298.15 K, x1 = 0.3027) was 1.4272 ± 0.0013, the refractive index ([2]; 298.15 K, x1 = 0.3999) was 1.4319 ± 0.0012 and the refractive index ([2]; 298.15 K, x1 = 0.4997) was 1.4367 ± 0.0012. It also gave a refractive index ([2]; 298.15 K, x1 = 0.5991) of 1.4421 ± 0.0012, a refractive index ([2]; 298.15 K, x1 = 0.6991) of 1.4476 ± 0.0012 and a refractive index ([2]; 298.15 K, x1 = 0.8019) of 1.4535 ± 0.0012. For the same compound, the refractive index ([2]; 298.15 K, x1 = 0.8992) was 1.4594 ± 0.0012, the refractive index ([2]; 298.15 K, x1 = 1) was 1.4662 ± 0.0012 and the refractive index ([2]; 308.15 K, x1 = 0.1041) was 1.4143 ± 0.0013. It also gave a refractive index ([2]; 308.15 K, x1 = 0.2052) of 1.419 ± 0.0013, a refractive index ([2]; 308.15 K, x1 = 0.3027) of 1.4232 ± 0.0013 and a refractive index ([2]; 308.15 K, x1 = 0.3999) of 1.428 ± 0.0012. For the same compound, the refractive index ([2]; 308.15 K, x1 = 0.4997) was 1.4331 ± 0.0012, the refractive index ([2]; 308.15 K, x1 = 0.5991) was 1.4378 ± 0.0012 and the refractive index ([2]; 308.15 K, x1 = 0.6991) was 1.4434 ± 0.0012. For the same compound, the refractive index ([2]; 308.15 K, x1 = 0.8019) was 1.4496 ± 0.0012, the refractive index ([2]; 308.15 K, x1 = 0.8992) was 1.4559 ± 0.0012 and the refractive index ([2]; 308.15 K, x1 = 1) was 1.4618 ± 0.0012. The refractive index ([2]; 318.15 K, x1 = 0.1041) was 1.4099 ± 0.0013, the refractive index ([2]; 318.15 K, x1 = 0.2052) was 1.4146 ± 0.0013 and the refractive index ([2]; 318.15 K, x1 = 0.3027) was 1.4191 ± 0.0013. It also gave a refractive index ([2]; 318.15 K, x1 = 0.3999) of 1.4236 ± 0.0012, a refractive index ([2]; 318.15 K, x1 = 0.4997) of 1.4281 ± 0.0012 and a refractive index ([2]; 318.15 K, x1 = 0.5991) of 1.4332 ± 0.0012. It also gave a refractive index ([2]; 318.15 K, x1 = 0.6991) of 1.439 ± 0.0012, a refractive index ([2]; 318.15 K, x1 = 0.8019) of 1.4452 ± 0.0012 and a refractive index ([2]; 318.15 K, x1 = 0.8992) of 1.4515 ± 0.0012. The refractive index ([2]; 318.15 K, x1 = 1) was 1.4581 ± 0.0012.
